ChEMBL document CHEMBL3576804, “Novel Potent Orthosteric Antagonist of ASIC1a Prevents NMDAR-Dependent LTP Induction” (J Med Chem, 2015)
Calls of active or inactive are those of the source. The rule behind the calls is not given here.

Tests used:
[1] = biological target: T1, Acid-sensing ion channel 1 (Homo sapiens) (UniProt P78348); assay: Inhibition of human ASIC1a endogenously expressed in HEK293 cells clamped at -100 mV gated ionic current at 100 uM at pH 5.0 by standard whole cell patch clamp assay; type: cell-based
T1 sequence (whole entry): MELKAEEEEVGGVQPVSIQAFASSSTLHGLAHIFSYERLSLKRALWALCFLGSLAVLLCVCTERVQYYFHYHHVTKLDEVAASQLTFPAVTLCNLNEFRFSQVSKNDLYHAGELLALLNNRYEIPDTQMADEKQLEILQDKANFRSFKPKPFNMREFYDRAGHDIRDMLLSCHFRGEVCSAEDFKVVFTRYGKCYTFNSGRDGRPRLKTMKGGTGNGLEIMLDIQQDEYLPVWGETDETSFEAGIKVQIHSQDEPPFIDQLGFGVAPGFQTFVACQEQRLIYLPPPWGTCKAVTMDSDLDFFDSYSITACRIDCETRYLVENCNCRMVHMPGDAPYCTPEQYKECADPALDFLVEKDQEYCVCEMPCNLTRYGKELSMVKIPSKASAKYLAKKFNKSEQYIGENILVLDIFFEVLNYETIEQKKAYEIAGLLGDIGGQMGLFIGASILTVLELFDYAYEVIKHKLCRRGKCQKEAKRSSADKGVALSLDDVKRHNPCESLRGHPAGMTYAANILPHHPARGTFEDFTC

[2] = biological target: T1, Acid-sensing ion channel 1 (Homo sapiens); assay: Inhibition of human ASIC1a endogenously expressed in HEK293 cells clamped at -100 mV gated ionic current at 10 uM at pH 5.0 by standard whole cell patch clamp assay; type: cell-based
[3] = biological target: T1, Acid-sensing ion channel 1 (Homo sapiens); assay: Inhibition of human ASIC1a endogenously expressed in HEK293 cells clamped at -100 mV gated ionic current at 100 uM at pH 6.7 by standard whole cell patch clamp assay; type: cell-based
[4] = biological target: T1, Acid-sensing ion channel 1 (Homo sapiens); assay: Inhibition of human ASIC1a endogenously expressed in HEK293 cells clamped at -100 mV gated ionic current at 10 uM at pH 6.7 by standard whole cell patch clamp assay; type: cell-based
[5] = tested on: Hippocampus; assay: Effect on amplitude of field excitatory postsynaptic potential in Wistar rat hippocampal CA3-CA1 region at 100 nM by patch clamp method; type: functional
[6] = tested on: Hippocampus; assay: Inhibition of amplitude of inhibitory postsynaptic currents in Wistar rat hippocampal CA3-CA1 region at 100 nM by patch clamp method; type: functional, tissue-based
[7] = tested on: Hippocampus; assay: Inhibition of amplitude of excitatory postsynaptic currents in Wistar rat hippocampal CA3-CA1 region at 100 nM by patch clamp method; type: functional, tissue-based
[8] = tested on: Hippocampus; assay: Increase in slope of field excitatory postsynaptic potential in Wistar rat hippocampal CA3-CA1 region at 100 nM by patch clamp method; type: functional, tissue-based
[9] = tested on: Hippocampus; assay: Increase in amplitude of field excitatory postsynaptic potential in Wistar rat hippocampal CA3-CA1 region at 100 nM by patch clamp method; type: functional, tissue-based
[10] = tested on: Hippocampus; assay: Increase in short-term potentiation in Wistar rat hippocampal CA3-CA1 region at 100 nM by patch clamp method (reference value: 225.9 +/- 12.4%); type: functional
[11] = tested on: Hippocampus; assay: Blocking of short-term potentiation in Wistar rat hippocampal CA3-CA1 regions at 100 nM by patch clamp method (Rvb =142.9 +/- 25%); type: functional
[12] = tested on: Hippocampus; assay: Effect on NMDAR-independent long-term potentiation in Wistar rat hippocampal MF-CA3 region at 100 nM in presence of NMDA receptor blocker MK801 by patch clamp method (reference value: 118.3 +/- 9.6%); type: functional
[13] = biological target: T1, Acid-sensing ion channel 1 (Homo sapiens); assay: Inhibition of human ASIC1a endogenously expressed in HEK293 cells clamped at -100 mV gated ionic current at 100 nM at pH 5.0 by standard whole cell patch clamp assay; type: cell-based
[14] = biological target: T1, Acid-sensing ion channel 1 (Homo sapiens); assay: Inhibition of human ASIC1a endogenously expressed in HEK293 cells clamped at -100 mV gated ionic current at 100 nM at pH 6.7 by standard whole cell patch clamp assay; type: cell-based
[15] = biological target: T2, Acid-sensing ion channel 1 (Rattus norvegicus) (UniProt P55926); assay: Inhibition of ASIC1a in Wistar rat hippocampal neurons assessed as ASIC1a-like currents level at 10 uM by patch clamp assay; set-up: scale not given: the % may be the effect or the level left
T2 sequence (whole entry): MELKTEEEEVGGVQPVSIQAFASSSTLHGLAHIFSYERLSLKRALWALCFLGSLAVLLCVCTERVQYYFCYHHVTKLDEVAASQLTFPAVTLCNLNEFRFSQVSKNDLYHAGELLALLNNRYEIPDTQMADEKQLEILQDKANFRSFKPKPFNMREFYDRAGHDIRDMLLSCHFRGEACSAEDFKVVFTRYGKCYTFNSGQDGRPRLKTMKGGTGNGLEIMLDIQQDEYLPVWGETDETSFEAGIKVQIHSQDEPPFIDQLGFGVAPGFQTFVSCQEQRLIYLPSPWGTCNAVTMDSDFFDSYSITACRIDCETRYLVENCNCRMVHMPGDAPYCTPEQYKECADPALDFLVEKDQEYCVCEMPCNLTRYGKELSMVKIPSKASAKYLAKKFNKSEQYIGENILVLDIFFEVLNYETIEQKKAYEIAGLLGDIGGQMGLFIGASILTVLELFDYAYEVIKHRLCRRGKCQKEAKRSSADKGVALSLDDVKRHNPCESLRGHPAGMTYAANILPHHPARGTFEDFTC

[16] = biological target: T3, Acid-sensing ion channel 3 (Rattus norvegicus) (UniProt O35240); assay: Inhibition of ASIC3 in Wistar rat hippocampal neurons assessed as fast ASIC3-like currents level at 10 uM by patch clamp assay; set-up: scale not given: the % may be the effect or the level left
T3 sequence (whole entry): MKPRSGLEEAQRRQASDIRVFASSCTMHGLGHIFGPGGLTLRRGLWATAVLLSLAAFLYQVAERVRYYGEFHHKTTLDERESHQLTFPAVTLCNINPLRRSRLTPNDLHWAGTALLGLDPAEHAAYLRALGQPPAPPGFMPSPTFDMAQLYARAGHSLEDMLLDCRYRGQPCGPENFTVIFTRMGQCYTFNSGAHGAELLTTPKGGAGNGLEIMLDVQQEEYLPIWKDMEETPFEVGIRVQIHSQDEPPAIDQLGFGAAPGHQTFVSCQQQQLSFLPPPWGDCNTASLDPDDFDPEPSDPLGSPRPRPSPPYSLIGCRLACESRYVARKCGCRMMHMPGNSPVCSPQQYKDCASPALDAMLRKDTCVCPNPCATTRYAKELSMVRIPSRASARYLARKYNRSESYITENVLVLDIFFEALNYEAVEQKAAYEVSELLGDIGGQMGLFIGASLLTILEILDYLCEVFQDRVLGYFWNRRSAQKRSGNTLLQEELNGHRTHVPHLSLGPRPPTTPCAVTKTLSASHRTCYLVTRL

[17] = biological target: T4, Acid-sensing ion channel 2 (Rattus norvegicus) (UniProt Q62962); assay: Inhibition of ASIC2 in Wistar rat hippocampal neurons assessed as slow ASIC2-like currents level at 10 uM by patch clamp assay; set-up: scale not given: the % may be the effect or the level left
T4 sequence (whole entry): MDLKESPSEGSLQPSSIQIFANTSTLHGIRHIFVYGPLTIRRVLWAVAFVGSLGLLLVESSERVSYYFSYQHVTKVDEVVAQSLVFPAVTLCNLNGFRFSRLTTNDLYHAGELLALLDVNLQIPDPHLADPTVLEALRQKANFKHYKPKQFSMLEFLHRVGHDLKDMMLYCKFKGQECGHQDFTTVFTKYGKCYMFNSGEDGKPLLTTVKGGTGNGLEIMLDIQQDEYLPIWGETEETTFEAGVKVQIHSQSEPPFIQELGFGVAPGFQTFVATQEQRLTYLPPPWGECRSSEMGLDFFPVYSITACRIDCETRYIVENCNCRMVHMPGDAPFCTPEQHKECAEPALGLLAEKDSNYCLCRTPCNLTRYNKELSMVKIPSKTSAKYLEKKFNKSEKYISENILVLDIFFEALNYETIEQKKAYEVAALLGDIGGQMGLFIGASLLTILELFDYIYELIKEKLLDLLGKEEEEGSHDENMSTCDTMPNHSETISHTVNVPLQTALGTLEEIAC

[18] = biological target: T5, Acid-sensing ion channel 1 (Homo sapiens, UniProt P78348); assay: Inhibition of human ASIC1a endogenously expressed in HEK293 cells clamped at -100 mV gated ionic current at pH 6.7 by standard whole cell patch clamp assay; type: cell-based
T5 sequence (P78348 whole entry): T1 sequence (whole entry)

[19] = biological target: T5, Acid-sensing ion channel 1; assay: Inhibition of human ASIC1a endogenously expressed in HEK293 cells clamped at -100 mV gated ionic current at pH 5.0 by standard whole cell patch clamp assay; type: cell-based
[20] = biological target: T1, Acid-sensing ion channel 1 (Homo sapiens); assay: Reversible inhibition of human ASIC1a endogenously expressed in HEK293 cells clamped at -100 mV gated ionic current at pH 6.7 measured after drug wash out by standard whole cell patch clamp assay; type: cell-based
[21] = biological target: T1, Acid-sensing ion channel 1 (Homo sapiens); assay: Reversible inhibition of human ASIC1a endogenously expressed in HEK293 cells clamped at -100 mV gated ionic current at pH 5.0 measured after drug wash out by standard whole cell patch clamp assay; type: cell-based
[22] = biological target: T1, Acid-sensing ion channel 1 (Homo sapiens); assay: Inhibition of human ASIC1a endogenously expressed in HEK293 cells clamped at -100 mV gated ionic current at 100 nM by standard whole cell patch clamp assay; type: cell-based
[23] = biological target: T1, Acid-sensing ion channel 1 (Homo sapiens); assay: Inhibition of human ASIC1a endogenously expressed in HEK293 cells clamped at -20 mV gated ionic current at 100 nM by standard whole cell patch clamp assay; type: cell-based
[24] = biological target: T1, Acid-sensing ion channel 1 (Homo sapiens); assay: Inhibition of human ASIC1a endogenously expressed in HEK293 cells clamped at -100 mV gated ionic current at 100 nM in presence of cellular membrane depolarization by standard whole cell patch clamp assay; type: cell-based
[25] = biological target: T5, Acid-sensing ion channel 1; assay: Orthosteric non-competitive inhibition of human ASIC1a endogenously expressed in HEK293 cells clamped at -100 mV gated ionic current assessed as EC50 for steady state activation at 10 nM by standard whole cell patch clamp assay (reference value: 6.57 +/- 0.01 pH); type: cell-based
[26] = biological target: T5, Acid-sensing ion channel 1; assay: Orthosteric non-competitive inhibition of human ASIC1a endogenously expressed in HEK293 cells clamped at -100 mV gated ionic current assessed as EC50 for steady state activation at 100 nM by standard whole cell patch clamp assay (reference value: 6.57 +/- 0.01 pH); type: cell-based
[27] = biological target: T5, Acid-sensing ion channel 1; assay: Orthosteric non-competitive inhibition of human ASIC1a endogenously expressed in HEK293 cells clamped at -100 mV gated ionic current assessed as EC50 for steady state activation at 1 uM by standard whole cell patch clamp assay (reference value: 6.57 +/- 0.01 pH); type: cell-based
[28] = biological target: T1, Acid-sensing ion channel 1 (Homo sapiens); assay: Orthosteric non-competitive inhibition of human ASIC1a endogenously expressed in HEK293 cells clamped at -100 mV gated ionic current assessed as maximal evoked response for steady-state activation at 10 nM by standard whole cell patch clamp assay relative to untreated control; type: cell-based; set-up: scale not given: the % may be the effect or the level left
[29] = biological target: T1, Acid-sensing ion channel 1 (Homo sapiens); assay: Orthosteric non-competitive inhibition of human ASIC1a endogenously expressed in HEK293 cells clamped at -100 mV gated ionic current assessed as maximal evoked response for steady-state activation at 100 nM by standard whole cell patch clamp assay relative to untreated control; type: cell-based; set-up: scale not given: the % may be the effect or the level left
[30] = biological target: T1, Acid-sensing ion channel 1 (Homo sapiens); assay: Orthosteric non-competitive inhibition of human ASIC1a endogenously expressed in HEK293 cells clamped at -100 mV gated ionic current assessed as maximal evoked response for steady-state activation at 1 uM by standard whole cell patch clamp assay relative to untreated control; type: cell-based; set-up: scale not given: the % may be the effect or the level left
[31] = biological target: T2, Acid-sensing ion channel 1 (Rattus norvegicus); assay: Inhibition of ASIC1a in Wistar rat pyramidal hippocampal neurons assessed as ASIC1a-like currents level at 100 nM by patch clamp assay; set-up: scale not given: the % may be the effect or the level left
[32] = biological target: T2, Acid-sensing ion channel 1 (Rattus norvegicus); assay: Inhibition of ASIC1a in Wistar rat pyramidal hippocampal neurons assessed as reduction in main ionic currents at 1 uM by patch clamp assay
[33] = tested on: Hippocampus; assay: Effect on slope of field excitatory postsynaptic potential in Wistar rat hippocampal CA3-CA1 region at 100 nM by patch clamp method; type: functional

CN(Cc1ccccc1)c1ccc2cc(C(=N)N)c(=O)oc2c1
inhibition [1]: 36.6%
inhibition [2]: 79.2%
inhibition [3]: 22.3%
inhibition [4]: 42.9%

CCN(CC)CCN(Cc1ccc(Cl)cc1)c1ccc2cc(C(=N)N)c(=O)oc2c1
Activity [5]: 104.6%
inhibition [6]: inactive
inhibition [7]: inactive
Activity [8]: Active
Activity [9]: Active
Activity [10]: 193.2%
Activity [11]: 106.2%
Activity [12]: 117%
inhibition [2]: 44.8%
inhibition [4]: 2.5%
inhibition [13]: 98.6%
inhibition [14]: 23.7%
Activity [15]: 48.3%
Activity [16]: 45.2%
Activity [17]: 99.3%
IC50 [18]: 0.0274 µM
IC50 [19]: 7.34 µM
inhibition [20]: Active
inhibition [21]: Active
inhibition [22]: 42.1%
inhibition [23]: 45.8%
inhibition [24]: Active
EC50 [25]: 6.5 pH
EC50 [26]: 6.4 pH
EC50 [27]: 6.18 pH
Activity [28]: 93.2%
Activity [29]: 83.9%
Activity [30]: 72.2%
Activity [31]: 9.39%
inhibition [32]: inactive
Activity [33]: 103.4%

CCN(CC)CCN(CC)c1ccc2cc(C(=N)N)c(=O)oc2c1
inhibition [1]: 78.7%
inhibition [2]: 101%
inhibition [3]: 53.2%
inhibition [4]: 77.5%
